Test results reported in patent publication EP1598418A1, “STABILISED COMPOSITION FOR FLUORIMETRIC, COLORIMETRIC OR CHEMOLUMINESCENT ASSAYS, KITS CONTAINING SAME AND PRODUCTION METHOD THEREOF” (BIOTOOLS BIOTECHNOLOGICAL & MEDICAL LABORATORIES, S.A., priority 2003, dated 2004).

How the values were obtained:
Conditions in all cases: conserved at T 4 °C, vs fresh mixture
TaqMan probes = experiment: Real-time amplification with desiccated, stabilised reaction mixture with TaqMan probes after storage (Example 2); assay type: biochemical, P. falciparum
antidigoxygenin antibody = experiment: Colorimetry assay of stabilised protein immobilised in ELISA microplates (Example 10.2); assay type: biochemical, HPV
Experimental: To do so each dimple was incubated with 1µg of antidigoxygenin antibody (Roche).
The amplified product was incubated for 30 minutes in the dimples with the antibody immobilised. The amplified products immobilised in the plate by the union of the digoxygenin group of the amplicons and the immobilised anti-digoxygenin group were analysed by a colorimetric assay. […] The colorimetric reaction was finally analysed by measuring absorption at 415 nm.

FRET probes = experiment: Real-time amplification with desiccated, stabilised reaction mixture with FRET probes after storage (Example 1); assay type: biochemical, P. falciparum
[1] = test system: nucleic acids immobilised in modified glasses; experiment: Colorimetric assay of stabilised nucleic acids immobilised in modified glasses (Example 10.3); assay type: biochemical, HPV 16
Experimental: Approach 1. Stabilisation of supports with previously fixed nucleic acids. HPV specific probes were fixed to glass supports pre-treated with polylysiun, aldehyde, epoxy, superepoxy and silane. To do so, in each support slide 1 microlitre spots were applied of the solution of each oligonucleotide at a concentration of 20 µM in the conditions indicated for each glass format. The slides with the immobilised oligonucleotides were then coated with a thin layer of each of the stabilising mixtures and then desiccated in a vacuum oven at 25°C and 50 mbar pressure.
(§1) Approach 2. Fixation to the slides of the nucleic acids pre-mixed with the stabilising mixtures. A mixture was prepared of each of the probes with the suitable volumes of the stabilising mixtures described in Table 1. Then the mixtures of oligonucleotides were applied to the various slides with the fixing conditions indicated for each glass format.
To test the viability of each slide prepared, a colorimetric assay was performed with formation of precipitate products. To do so, the slides were washed for 5 minutes in PBS 1X at room temperature to eliminate the protective layer. Then the slides were incubated in the presence of an amplified and previously denatured HPV 16 product using the probes A11 and A12.

[2] = test system: oligonucleotides chemically modified by including biotin and/or digoxygenin groups; experiment: Amplification with desiccated biotin/digoxygenin oligonucleotides and colorimetric ELISA plate assay (Example 7); assay type: biochemical, oncogenic HPV
Experimental: To do so, 4 oligonucleotides were designed that hybridised with the genome of region E6-E7 of oncogenic HPV species.
To do so, an ELISA microplate with a high-binding capacity to streptoavidin (Biospa) was activated following a standard fixing protocol. Then, after blocking the plate by incubation with gelatine, the amplified products of the stabilising mixtures 1, 2 and 3 described in Example 7.A were analysed by a colorimetry assay according to the following experimental process: • A.- Amplification products using an onligonucleotide marked with digoxygenin (mixture 1 in Example 7.A). The biotinated probe A11 was fixed to the plate and the amplified product was hybridised. […] The amplification product was fixed to the plate with the first biotinilate and then hybridised with the first A12 marked with digoxygenin.

[3] = test system: Anti-digoxygenin antibodies; experiment: Colorimetric assay of stabilised proteins immobilised in modified glasses (Example 10.4); assay type: biochemical, P. falciparum
Experimental: To test the possibility of stabilising proteins that have been previously immobilised in pre-treated glass supports, the usual format of microarray systems, two different alternatives were tested as in the previous experiment.
Approach 1. Stabilisation of supports with previously fixed protein. Anti-digoxygenin antibodies were fixed to glass supports pre-treated with aldehyde. To do so, in each support slide 1 microlitre spots were applied of the solution of each protein at a concentration of 30 ng/µl. The slides with the immobilised protein were then coated with a thin layer of each of the stabilising mixtures and then desiccated in a vacuum oven at 25°C and 50 mbar pressure.
as §1, with “protein” for “nucleic acids”, “protein” for “oligonucleotides”
To test the viability of each slide prepared, a colorimetric assay was performed with formation of precipitate products. To do so, the slides were washed for 5 minutes in PBS 1X at room temperature to eliminate the protective layer.

[4] = test system: DTCS Quick Start Master Mix; experiment: Sequencing reaction with desiccated, stabilised mixture with fluorescent terminators after storage (Example 6); assay type: biochemical, human papillomavirus
Experimental: To test the possibility of gelling reaction mixtures for sequencing nucleic acids the CEQ 200 Dye Terminator Cycle Sequencing (DTCS) Quick Start Kit (Beckman Coulter) was employed, which uses a PCR sequencing system in a single tube by incorporating four different fluorescent terminators. The sequencing reactions were later analysed in a CEQ 2000 XL DNA Analysis System (Beckman Coulter) capillary electrophoresis automatic sequencing system.
Reaction mixtures were prepared containing 4 microlitres of DTCS Quick Start Master Mix, 1 microlitre of universal primer M13-17 and the suitable volume of each stabilising mixture shown in Table 1.
In parallel, in order to check the evolution of the activity of the desiccated and stabilised tubes, the same plasmid was sequenced using a fresh sequencing mixture in standard conditions. Finally, the sequencing reactions were analysed in the CEQ 200XL system following the supplier's instructions.

[5] = test system: streptoavidin conjugated with HRP (Str-HRP) and anti-digoxygenin conjugated with alkaline phospatase (anti-DIG-AP); experiment: Colorimetric ELISA plate activity test of desiccated, stabilised conjugates (Example 8); assay type: biochemical, HPV 16
Experimental: In 0.2 ml amplification tubes were added 100 microlitres of a 1/250 dilution in a blocking solution of the conjugate Str-HRP (Biospa). In parallel, 0.2 ml phials were prepared in which 100 microlitres were added of a 1/250 dilution in a blocking solution of anti-DIG-AP (Sigma).
For the activity assay of the conjugate anti-DIG-AP an ELISA plate was used in which the dimples had been previously coated with streptoavidin. For the activity assay of conjugate Str-HRP a plate was used instead with dimples previously coated with anti-DIG antibodies. The amplified products were incubated in each plate to allow the immobilisation of the amplicons in the plate.

[6] = test system: probes marked with biotin or digoxygenin groups; experiment: Synthesis of digoxygenin-marked probes with desiccated mixtures and molecular hybridisation test (Example 9)
[7] = test system: nucleic acids immobilised in ELISA microplates; experiment: Amplification and colorimetric detection with stabilised nucleic acids immobilised in ELISA microplates (Example 10.1)
[8] = test system: Molecular Beacon (MB) probe; experiment: Real-time amplification with desiccated, stabilised reaction mixture with Molecular Beacon probe after storage (Example 3); assay type: biochemical, P. falciparum
[9] = test system: reaction mixture with SYBR Green; experiment: Real-time amplification with desiccated, stabilised reaction mixture with SYBR Green after storage (Example 5); assay type: biochemical, oncogenic papillomaviruses
Experimental: To test the efficiency of intercalated fluorophores such as SYBR Green included in desiccated and stabilised reaction mixtures, reaction mixtures were prepared for amplifying a 250 bp fragment corresponding to region E6-E7 of oncogenic papillomaviruses, using the same reagents as described in Example 1. In this case the unit "DNA Engine OPTICON™ 2 System" (MJ Research) was used. […] Also to each phial was added […] of SYBR Green 1 (Molecular probes).
Various tubes were prepared as described above, adding to each the suitable volume of each stabilising mixture shown in Table 1.
In parallel, in order to check the evolution of the activity of the desiccated tubes, DNA samples were amplified using a fresh mixture in the same amplification conditions.
The result of the amplification reaction was analysed in every case by inspecting the fluorescence curve and determining the crossing point, following the instructions of the equipment software, for each reaction tube both fresh and desiccated and stabilised. […] The samples of patients infected with oncogenic HPV gave positive results in every case, while patients infected with non-oncogenic HPV, or not infected with HPV, gave negative results in every case.

Scorpion probes = experiment: Real-time amplification with desiccated, stabilised reaction mixture with Scorpion probes after storage (Example 4); assay type: biochemical, M. tuberculosis

Structure (SMILES) | activity of stabilising mixtures (TaqMan probes) | activity of stabilising mixtures (antidigoxygenin antibody) | activity of stabilising mixtures (FRET probes) | activity of stabilising mixtures [1] | activity of stabilising mixtures [2] | activity of stabilising mixtures [3] | activity of stabilising mixtures [4] | activity of stabilising mixtures [5] | activity of stabilising mixtures [6] | activity of stabilising mixtures [7] | activity of stabilising mixtures [8] | activity of stabilising mixtures [9] | activity of stabilising mixtures (Scorpion probes)
OCC(O)CO [Glycerol] | ++ (++, positive with 50-90% of the activity of the fresh mixture) | ++ (++, positive with 50-90% of the activity of the fresh mixture) | ++ (++, positive with 50-90% of the activity of the fresh mixture) | ++ (++, positive with 50-90% of the activity of the fresh mixture) | ++ (++, positive with 50-90% of the activity of the fresh mixture) | ++ (++, positive with 50-90% of the activity of the fresh mixture) | ++ (++, positive with 50-90% of the activity of the fresh mixture) | ++ (++, positive with 50-90% of the activity of the fresh mixture) | ++ (++, positive with 50-90% of the activity of the fresh mixture) | ++ (++, positive with 50-90% of the activity of the fresh mixture) | ++ (++, positive with 50-90% of the activity of the fresh mixture) |  | 
NCCCC[C@H](N)C(=O)O [Lysine] | + (+, weak positive, under 50% of the activity of the fresh mixture) | + (+, weak positive, under 50% of the activity of the fresh mixture) | + (+, weak positive, under 50% of the activity of the fresh mixture) | + (+, weak positive, under 50% of the activity of the fresh mixture) | + (+, weak positive, under 50% of the activity of the fresh mixture) | + (+, weak positive, under 50% of the activity of the fresh mixture) | + (+, weak positive, under 50% of the activity of the fresh mixture) | + (+, weak positive, under 50% of the activity of the fresh mixture) | + (+, weak positive, under 50% of the activity of the fresh mixture) | + (+, weak positive, under 50% of the activity of the fresh mixture) | + (+, weak positive, under 50% of the activity of the fresh mixture) | + (+, weak positive, under 50% of the activity of the fresh mixture) | + (+, weak positive, under 50% of the activity of the fresh mixture)
OC[C@H]1O[C@@](CO)(O[C@H]2O[C@H](CO)[C@@H](O)[C@H](O)[C@H]2O)[C@@H](O[C@H]2O[C@H](CO)[C@@H](O)[C@H](O)[C@H]2O)[C@@H]1O [Melezitose] | + (+, weak positive, under 50% of the activity of the fresh mixture) | + (+, weak positive, under 50% of the activity of the fresh mixture) | + (+, weak positive, under 50% of the activity of the fresh mixture) | + (+, weak positive, under 50% of the activity of the fresh mixture) | + (+, weak positive, under 50% of the activity of the fresh mixture) | + (+, weak positive, under 50% of the activity of the fresh mixture) | + (+, weak positive, under 50% of the activity of the fresh mixture) | + (+, weak positive, under 50% of the activity of the fresh mixture) | + (+, weak positive, under 50% of the activity of the fresh mixture) | + (+, weak positive, under 50% of the activity of the fresh mixture) | + (+, weak positive, under 50% of the activity of the fresh mixture) | + (+, weak positive, under 50% of the activity of the fresh mixture) | + (+, weak positive, under 50% of the activity of the fresh mixture)
OC[C@@H](O)[C@@H](O)[C@H](O)[C@@H](O)CO [Sorbitol] | ++ (++, positive with 50-90% of the activity of the fresh mixture) | ++ (++, positive with 50-90% of the activity of the fresh mixture) | ++ (++, positive with 50-90% of the activity of the fresh mixture) | ++ (++, positive with 50-90% of the activity of the fresh mixture) | ++ (++, positive with 50-90% of the activity of the fresh mixture) | ++ (++, positive with 50-90% of the activity of the fresh mixture) | ++ (++, positive with 50-90% of the activity of the fresh mixture) | ++ (++, positive with 50-90% of the activity of the fresh mixture) | ++ (++, positive with 50-90% of the activity of the fresh mixture) | ++ (++, positive with 50-90% of the activity of the fresh mixture) | ++ (++, positive with 50-90% of the activity of the fresh mixture) |  | 
